Tests used:
[1] = biological target: T1, mGluR1α D322I (Rattus norvegicus, UniProt P23385, D322I); assay: [^3H]-L-Quis binding to membranes of HEK293 cells expressing D322I; details: in the presence of 30 nM [^3H]-L-Quis, read-out: KD, [Ca^2+]o-binding affinity of mGluR1α
T1 construct: expressed in transfected cells; host or cells: HEK293

[2] = biological target: mGluR1 (Rattus norvegicus, UniProt P23385); assay: Fura-2 intracellular calcium release in mGluR1-transfected HEK293 cells (Example 4); format: cell-based; parameters: expressed in transfected cells; host or cells: HEK293; details: 3 mM/6 mM calcium, after wash with 0 mM calcium
Chain of mGluR1 (P23385 19-1199): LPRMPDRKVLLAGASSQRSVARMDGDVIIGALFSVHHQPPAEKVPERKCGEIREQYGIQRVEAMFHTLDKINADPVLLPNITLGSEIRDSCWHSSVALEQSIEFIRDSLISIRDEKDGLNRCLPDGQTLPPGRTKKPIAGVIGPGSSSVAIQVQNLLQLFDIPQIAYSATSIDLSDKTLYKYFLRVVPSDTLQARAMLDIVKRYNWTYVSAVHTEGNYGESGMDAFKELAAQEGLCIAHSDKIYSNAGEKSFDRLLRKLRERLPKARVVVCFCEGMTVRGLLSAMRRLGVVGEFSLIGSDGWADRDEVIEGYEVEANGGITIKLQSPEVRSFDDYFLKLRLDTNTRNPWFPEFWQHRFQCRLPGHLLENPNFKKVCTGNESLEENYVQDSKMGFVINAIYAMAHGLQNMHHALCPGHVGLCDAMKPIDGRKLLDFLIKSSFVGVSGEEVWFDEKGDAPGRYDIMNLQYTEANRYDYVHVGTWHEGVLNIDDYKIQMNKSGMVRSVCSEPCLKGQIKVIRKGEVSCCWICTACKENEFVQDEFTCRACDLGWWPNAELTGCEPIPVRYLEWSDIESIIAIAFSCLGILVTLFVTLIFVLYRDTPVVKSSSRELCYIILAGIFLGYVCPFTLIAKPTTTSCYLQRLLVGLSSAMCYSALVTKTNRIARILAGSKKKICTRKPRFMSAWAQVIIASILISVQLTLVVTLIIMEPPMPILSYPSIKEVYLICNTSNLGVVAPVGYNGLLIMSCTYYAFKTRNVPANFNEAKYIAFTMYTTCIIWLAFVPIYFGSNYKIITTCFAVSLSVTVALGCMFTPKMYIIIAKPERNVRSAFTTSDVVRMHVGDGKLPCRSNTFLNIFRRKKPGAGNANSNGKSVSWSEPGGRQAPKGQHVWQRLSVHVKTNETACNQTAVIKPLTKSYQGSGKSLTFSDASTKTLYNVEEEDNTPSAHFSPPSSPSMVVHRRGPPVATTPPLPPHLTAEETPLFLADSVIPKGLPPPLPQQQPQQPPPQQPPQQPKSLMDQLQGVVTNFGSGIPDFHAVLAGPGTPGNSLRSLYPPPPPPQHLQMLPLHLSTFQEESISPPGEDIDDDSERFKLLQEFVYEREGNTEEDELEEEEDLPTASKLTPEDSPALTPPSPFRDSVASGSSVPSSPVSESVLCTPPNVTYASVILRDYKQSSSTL
Procedure: The coverslips with transfected, Fura-2-loaded HEK293 cells were placed diagonally in 3-ml quartz cuvettes containing bath buffer. The fluorescence spectra at 510 nm were measured during stepwise increases in [Ca2+]o with alternating excitation at 340 or 380 nm. The ratio of the intensities of the emitted light at 510 nm when excited at 340 or 380 nm was used to monitor changes in [Ca2+]i. mCherry was genetically fused into mGluR1 pcDNA. so cells have fluorescent intensity at 550 nm was selected for further analysis.

[3] = biological target: T2, mGluR1α E325I (Rattus norvegicus, UniProt P23385, E325I); assay: [^3H]-L-Quis binding to membranes of HEK293 cells expressing E325I; details: with 300 nM [^3H]-L-Quis, read-out: KD, [Ca^2+]o-binding affinity of mGluR1α
T2 construct: expressed in transfected cells; host or cells: HEK293
T2 sequence (P23385 19-1199 E325I): as the sequence (P23385 19-1199) above, with E307I counted along it

[4] = biological target: T3, WT mGluR1α (Rattus norvegicus, UniProt P23385); assay: Single cell Fura-2 [Ca^2+]i response in HEK293 cells transiently transfected with WT mGluR1α; format: cell-based; details: for Response to [Ca^2+]o: Maximal Response / Max. Res. to Ca^2+: normalized to maximal response of WT mGluR1α to L-Glu
T3 construct: expressed in transfected cells; host or cells: HEK293
T3 sequence (P23385 19-1199): as the sequence (P23385 19-1199) above
Procedure: The methods for measuring [Ca^2+]i responses were as described above. In the presence of (s)-MCPG, the cells were incubated with 0.5 mM (s)-MCPG in a saline buffer for 30 more minutes after Fura-2 loading.
Fura-2AM was used for monitoring [Ca^2+]i in real time as described above. […] Cells loaded with Fura-2AM were mounted onto a chamber perfused with saline buffer.

[5] = biological target: T3, WT mGluR1α; assay: [^3H]-L-Quis binding to membranes of HEK293 cells expressing WT mGluR1α
[6] = biological target: mGluR5 (Rattus norvegicus, UniProt P31424); assay: Intracellular Ca^2+ response/oscillation in mGluR5 transfected HEK293 cells; format: cell-based; parameters: expressed in transfected cells; host or cells: HEK293; details: no other agonist
Chain of mGluR5 (P31424 21-1203): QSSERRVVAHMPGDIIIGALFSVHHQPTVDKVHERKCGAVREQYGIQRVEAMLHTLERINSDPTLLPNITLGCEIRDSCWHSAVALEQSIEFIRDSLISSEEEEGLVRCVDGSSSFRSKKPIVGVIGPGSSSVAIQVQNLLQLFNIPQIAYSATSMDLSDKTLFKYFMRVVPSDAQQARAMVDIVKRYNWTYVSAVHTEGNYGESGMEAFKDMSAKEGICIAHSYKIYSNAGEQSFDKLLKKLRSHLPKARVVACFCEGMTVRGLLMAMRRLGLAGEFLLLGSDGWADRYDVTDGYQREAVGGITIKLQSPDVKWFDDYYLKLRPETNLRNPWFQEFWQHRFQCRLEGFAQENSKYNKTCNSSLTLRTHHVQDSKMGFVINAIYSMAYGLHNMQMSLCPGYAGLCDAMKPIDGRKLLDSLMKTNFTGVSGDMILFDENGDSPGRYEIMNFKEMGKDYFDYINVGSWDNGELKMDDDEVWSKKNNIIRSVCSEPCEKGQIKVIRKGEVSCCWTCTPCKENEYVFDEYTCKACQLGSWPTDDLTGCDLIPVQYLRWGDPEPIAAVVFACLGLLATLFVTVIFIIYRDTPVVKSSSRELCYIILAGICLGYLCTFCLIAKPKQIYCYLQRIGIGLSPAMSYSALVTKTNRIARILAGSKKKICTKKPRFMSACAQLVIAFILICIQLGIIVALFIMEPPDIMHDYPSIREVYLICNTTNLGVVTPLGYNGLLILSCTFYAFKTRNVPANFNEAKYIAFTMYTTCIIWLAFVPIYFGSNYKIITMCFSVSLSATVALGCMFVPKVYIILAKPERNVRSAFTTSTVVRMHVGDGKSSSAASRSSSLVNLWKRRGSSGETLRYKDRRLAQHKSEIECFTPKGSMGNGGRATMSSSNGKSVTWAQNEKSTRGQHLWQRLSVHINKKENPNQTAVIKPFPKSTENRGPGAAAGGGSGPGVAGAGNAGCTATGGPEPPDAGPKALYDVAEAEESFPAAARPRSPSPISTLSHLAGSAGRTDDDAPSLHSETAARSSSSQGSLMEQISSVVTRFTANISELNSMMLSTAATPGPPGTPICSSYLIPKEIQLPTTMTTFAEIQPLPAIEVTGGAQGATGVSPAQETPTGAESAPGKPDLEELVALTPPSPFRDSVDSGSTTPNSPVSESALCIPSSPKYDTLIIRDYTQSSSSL
Procedure: HEK293 cells were fed on a Dulbecco's Modified Eagle Medium (DMEM) and 10% fetal bovine serum (Invitrogen) and cultured at 37° C. in a humidified incubator with 5% CO2. One day before transfection, HEK293 cells were grown on 22×44 mm coverslips and then were transfected with mGluR5 plasmid (received as a gift from Dr. Randy Hall, Emory University, Atlanta, Ga.) with the aid of lipofectamine 2000 (Invitrogen). mGluR5 transfected HEK293 cells were grown for 48 hours and then loaded with 4 µM Fura-2 AM in loading buffer containing 10 mM HEPES (pH 7.4), 140 mM NaCl, 5 mM KCl, 0.55 mM MgCl2 for 30 minutes at 37° C. The coverslips were then mounted in a bathing chamber on the stage of a fluorescence microscope. […] The ratio of fluorescence emitted at 510 nm resulting from excitation at 340 or 380 nm was analyzed to obtain the [Ca^2+]i response as a function of changes in [Ca^2+]o.
HEK293 cells were cultured and transfected as described above. Intracellular Ca^2+ concentration was recorded using the method as described previously. […]

T1 sequence (P23385 19-1199 D322I): as the sequence (P23385 19-1199) above, with D304I counted along it

With [Ca+2] [[Ca^2+]o] the Kd [1] was 0.6 mM, the “Activation of mGluR1 by calcium alone” value [2] was “no response was observed” and the Kd [3] was over 20 mM. The “Fold increase of the EC50 for [Ca^2+]o” value ([4]; 0 versus 0.5 mM MCPG) was about 1.7 fold, the EC50 ([4]; 40 μM CPCCOEt, read-out: EC50 of mGluR1α for [Ca^2+]o) was 28700 µM and the “Response to [Ca^2+]o: nHill” value ([4]; 0.5 mM (s)-MCPG) was 2.6. For the same molecule, the “Response to [Ca^2+]o: Maximal Response” value ([4]; 0.5 mM (s)-MCPG) was 67 ± 2, the EC50 ([4]; 0.5 mM (s)-MCPG, read-out: Response to [Ca^2+]o: EC50) was 6000 µM and the “Response to [Ca^2+]o: nHill” value ([4]; (s)-MCPG 0) was 6.4. For the same molecule, the “Response to [Ca^2+]o: Maximal Response” value ([4]; (s)-MCPG 0) was 85 ± 2, the EC50 ([4]; (s)-MCPG 0, read-out: Response to [Ca^2+]o: EC50) was 3500 µM and the “Response to [Ca^2+]o: nHill” value ([4]; CPCCOEt 0) was 6.4. The “Response to [Ca^2+]o: Maximal Response” value ([4]; CPCCOEt 0) was 85 ± 2%, the EC50 ([4]; CPCCOEt 0, read-out: Response to [Ca^2+]o: EC50) was 3500 µM and the “Response to [Ca^2+]o: nHill” value ([4]; CPCCOEt Conc. 5 (μM)) was 1.3. The “Response to [Ca^2+]o: Maximal Response” value ([4]; CPCCOEt Conc. 5 (μM)) was 75 ± 3%, the EC50 ([4]; CPCCOEt Conc. 5 (μM), read-out: Response to [Ca^2+]o: EC50) was 7600 µM and the “Response to [Ca^2+]o: nHill” value ([4]; CPCCOEt Conc. 40 (nM)) was 1.1. For the same molecule, the “Response to [Ca^2+]o: Maximal Response” value ([4]; CPCCOEt Conc. 40 (nM)) was 60 ± 3%, the “Max. Res. to Ca^2+” value ([4]; Ro 67-4853 0 nM) was 85 ± 2 and the EC50 ([4]; Ro 67-4853 0 nM, read-out: EC50 of Ca^2+) was 3500 µM. The “Max. Res. to Ca^2+” value ([4]; Ro 67-4853 30 nM) was 83 ± 6, the EC50 ([4]; Ro 67-4853 30 nM, read-out: EC50 of Ca^2+) was 2100 µM and the “Max. Res. to Ca^2+” value ([4]; Ro 67-4853 300 nM) was 83 ± 2. The EC50 ([4]; Ro 67-4853 300 nM, read-out: EC50 of Ca^2+) was 700 µM, the EC50 ([4]; in the presence of 5 μM CPCCOEt, read-out: EC50 of mGluR1α for [Ca^2+]o) was 14700 µM and the Kd ([5]; WT, in the presence of 30 nM [^3H]-L-Quis, read-out: KD, [Ca^2+]o-binding affinity of mGluR1α) was 0.3 mM. For the same molecule, the EC50 ([5]; wild type receptor, read-out: EC50 of [Ca^2+]o for enhancing L-Quis-binding) was about 0.3 mM and the “Extracellular Ca^2+ concentration change that started to induce intracellular oscillation” value [6] was 0.05 mM.

— US10449216B2, “Modulating drug effects against metabotropic glutamate receptor with extracellular calcium” (GEORGIA STATE UNIVERSITY RESEARCH FOUNDATION, INC., priority 2013, dated 2019)
